Assay results from the NIST ThermoML archive (doi:10.1016/j.tca.2008.02.015).

Test: excess molar enthalpy (molar enthalpy of mixing); xn = mol fraction of the nth substance listed
Conditions: 298.15 K, 101 kPa, Liquid, Calvet calorimetry

COP(=O)(OC)OC [trimethyl orthophosphate] + CCCCO
Conditions	excess molar enthalpy [kcal/mol]
x1 = 0.0497	0.0957
x1 = 0.1005	0.176
x1 = 0.1531	0.24
x1 = 0.2071	0.292
x1 = 0.2625	0.322
x1 = 0.3199	0.344
x1 = 0.3794	0.353
x1 = 0.439	0.351
x1 = 0.5024	0.345
x1 = 0.5663	0.329
x1 = 0.6329	0.311
x1 = 0.7016	0.271
x1 = 0.7727	0.222
x1 = 0.8458	0.162
x1 = 0.9216	0.088

COP(=O)(OC)OC [trimethyl orthophosphate] + CCCO
Conditions	excess molar enthalpy [kcal/mol]
x1 = 0.0408	0.0654
x1 = 0.0836	0.126
x1 = 0.1284	0.173
x1 = 0.1753	0.212
x1 = 0.225	0.235
x1 = 0.2769	0.256
x1 = 0.3319	0.279
x1 = 0.39	0.293
x1 = 0.4508	0.296
x1 = 0.5139	0.282
x1 = 0.5701	0.27
x1 = 0.6274	0.246
x1 = 0.6875	0.219
x1 = 0.7351	0.197
x1 = 0.7834	0.167
x1 = 0.8518	0.117
x1 = 0.9054	0.0789
x1 = 0.9614	0.0416

COP(=O)(OC)OC [trimethyl orthophosphate] + CCO
Conditions	excess molar enthalpy [kcal/mol]
x1 = 0.0322	0.0369
x1 = 0.0665	0.0735
x1 = 0.1032	0.109
x1 = 0.1426	0.132
x1 = 0.185	0.151
x1 = 0.2305	0.168
x1 = 0.2796	0.179
x1 = 0.3327	0.197
x1 = 0.3671	0.208
x1 = 0.4156	0.209
x1 = 0.454	0.205
x1 = 0.5232	0.192
x1 = 0.6	0.171
x1 = 0.6836	0.144
x1 = 0.7775	0.111
x1 = 0.8821	0.0625
x1 = 0.928	0.0422
x1 = 0.9752	0.021

COP(=O)(OC)OC [trimethyl orthophosphate] + CO
Conditions	excess molar enthalpy [kcal/mol]
x1 = 0.037	0.0118
x1 = 0.0739	0.0211
x1 = 0.1033	0.0268
x1 = 0.1428	0.0329
x1 = 0.1876	0.0357
x1 = 0.2569	0.054
x1 = 0.3086	0.0508
x1 = 0.3658	0.048
x1 = 0.4047	0.0444
x1 = 0.4619	0.0414
x1 = 0.51	0.0352
x1 = 0.562	0.0302
x1 = 0.6405	0.0236
x1 = 0.7079	0.0156
x1 = 0.783	0.0102
x1 = 0.8383	0.00676
x1 = 0.9	0.00333
x1 = 0.9647	0.000473
